Where two headings read alike, the source gives them in different places.
What was measured:
[1] = Description: Each 50 ml water contained 11.4 mg lithium. Each aqueous solution was then shaken with 250 ml of chloroform/methanol (2/l by volume). The chloroform/methanol fraction was then separated off and evaporated to dryness under a stream of nitrogen. The mass of dry extract from the chloroform/methanol phase was weighed and its lithium content determined by flame photometry. The lithium content of the aqueous phase was also measured by flame photometry. • (B) 1 g of pure gamma-linolenic acid was dissolved in 10 ml of chloroform/methanol (2/l by volume). The resulting solution was then thoroughly shaken with 50 ml distilled water. The chloroform/methanol phase was then separated off and evaporated to dryness in a stream of nitrogen and the mass of dry extract was weighed.
[2] = Partition of lithium between water and chloroform/methanol (experiment A), lithium determined by flame photometry; assay type: physicochemical; conditions: 50 ml distilled water shaken with 250 ml chloroform/methanol (2/l by volume); range of five repeats
Description: Each 50 ml water contained 11.4 mg lithium.

[3] = 1 g in 10 ml chloroform/methanol (2/l by volume) shaken with 50 ml distilled water, range of five repeats
[4] = fatty acid salt, taken as equivalent to the percentage of lithium (experiment A)

Row | SMILES | Percentage of total fatty acid/ fatty acid salt* in: Aqueous phase [1, 3] | Percentage of total fatty acid/ fatty acid salt* in: Chloroform/methanol phase [1, 3] | Percentage of total lithium in: Chloroform/methanol phase [2] | solubility (physchem; alcohol, organic solvent or mixture) [mg/mL] | solubility (physchem; water) [mg/mL] | Percentage of total fatty acid/ fatty acid salt* in: Aqueous phase [1, 4] | Percentage of total fatty acid/ fatty acid salt* in: Chloroform/methanol phase [1, 4] | Percentage of total lithium in: Aqueous phase [2]
1 | CCCCC/C=C\C/C=C\C/C=C\CCCCC(=O)O [Gamma-linolenic acid, reference compound] | 2-9% | 91-98% |  |  |  |  |  | 
2 | [Cl-].[Li+] [Lithium chloride, reference compound] |  |  | 1-5% |  |  |  |  | 
3 | CCCCC/C=C\C/C=C\C/C=C\CCCCC(=O)[O-].[Li+] [Lithium gammalinolenate, Lithium gamma-linolenate] |  |  | 83-89% | > 30 | > 30 | 11-17% | 83-89% | 11-17%

— patent publication EP0289204B1, “Lithium salt-containing pharmaceutical compositions” (EFAMOL HOLDINGS PLC, priority 1987, dated 1988)
